Assay results from patent US20090239917A1, “Heterocyclic Cycloalkyl Compounds, a Process for their Preparation and Pharmaceutical Compositions Containing Them” (Les Laboratoires Servier, priority 2006, published 2009).

Test system: ob/ob mouse
Experiment: Antidiabetic and hypolipaemic effect in the ob/ob mouse
Type: in vivo
Source text: Mutations in laboratory animals and also different sensitivities to dietary regimens have allowed the development of animal models having non-insulin-dependent diabetes and hyperlipidaemia associated with obesity and with resistance to insulin. Genetic mice models (ob/ob) (Diabetes, 1982, 31 (1), 1-6) and Zucker (fa/fa) rats have been developed by various laboratories in order to understand the physiopathology of those diseases and test the effectiveness of new antidiabetic compounds (Diabetes, 1983, 32, 830-838).
The 10-week-old male ob/ob mouse (Harlan) is used for the in vivo tests. The animals are kept in a light-darkness cycle of 12 hours at 25° C. This mouse has a basal hyperglycaemia of 2 g/l. The animals are randomly selected with regard to their glycaemia to form groups of eight. […] The control group receives the solvents under the same conditions as the treated groups. The activity of the products is evaluated by measuring glycaemia, insulinaemia and triglyceridaemia 24 hours after the final administration and by measuring body weight daily.

[1] = 3 mg/kg oral, once per day for four days, 24 hours after final administration

Compound | reduction in glycaemia (1 mg/kg) [%] | reduction in insulinaemia (1 mg/kg) [%] | reduction in the weight gain observed in the ob/ob control mice (1 mg/kg) [%] | reduction in triglyceridaemia (1 mg/kg) [%] | reduction of glycaemia vs control mice [1] [%] | reduction of insulinaemia vs control mice [1] [%] | reduction of triglyceridaemia vs control mice [1] [%]
O=C(c1ccc2c(c1)sc(=O)n2CCOc1ccc(C[C@H](OCC(F)(F)F)C(=O)[O-])cc1)C1CC1.[Na+] [Example 9, Sodium (S)-3-{4-[2-(6-(cyclopropylcarbonyl)-2-oxo-1,3-benzothiazol-3(2H)-yl)ethoxy]phenyl}-2-(2,2,2-trifluoroethoxy)propanoate] | 39 | 41 | 14 | 52 |  |  | 
O=C(c1ccc2c(c1)sc(=O)n2CCOc1ccc(CC(OCC(F)(F)F)C(=O)O)cc1)C1CC1 (stereo not shown) [Example 2, 3-{4-[2-(6-(Cyclopropylcarbonyl)-2-oxo-1,3-benzothiazol-3(2H)-yl)-ethoxy]phenyl}-2-(2,2,2-trifluoroethoxy)propanoic acid] |  |  |  |  | 42 | 71 | 45
